Legend:
Settings in all cases: exposure time: 90 min
1518 [1] = donor line of iPSC-derived cardiomyocytes; assay: POD (EC10) for decrease in total cell number (cytotoxicity) vs vehicle; higher = less potent (higher point of departure)
Protocol: (§1)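 Human iPSC-derived cardiomyocytes from 16 donors were exposed for 90 min at 37 °C to each PFAS at 0.1, 1, 10 and 100 µM in 0.5% DMSO, 384-well plates. Kinetic Ca2+ flux (FLIPR) and Hoechst nuclei counts were normalised to vehicle wells and fitted with a hierarchical Bayesian Hill model to give donor-specific PODs: EC05 for beat-rate increase or decrease and for decay-to-rise ratio increase (QT proxy), EC95 for peak-frequency loss (asystole), EC10 for total cell number loss. 0.03 µM is the lower bound.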

1392 [2] = donor line of iPSC-derived cardiomyocytes; assay: as above
Protocol: as §1

1434 [3] = donor line of iPSC-derived cardiomyocytes; assay: as above
Protocol: as §1

30145 [4] = donor line of iPSC-derived cardiomyocytes; assay: as above
Protocol: as §1

30171 = donor line of iPSC-derived cardiomyocytes; assay: POD (EC95) for loss of peak frequency (asystole) vs vehicle; higher = less potent (higher point of departure)
Protocol: as §1

20084 = donor line of iPSC-derived cardiomyocytes; assay: as above
Protocol: as §1

1518 [5] = assay: as above
Protocol: as §1

1392 [6] = assay: as above
Protocol: as §1

1535 = donor line of iPSC-derived cardiomyocytes; assay: as above
Protocol: as §1

1368 = donor line of iPSC-derived cardiomyocytes; assay: as above
Protocol: as §1

1434 [7] = assay: as above
Protocol: as §1

20032 = donor line of iPSC-derived cardiomyocytes; assay: as above
Protocol: as §1

1083 = donor line of iPSC-derived cardiomyocytes; assay: as above
Protocol: as §1

11235 = donor line of iPSC-derived cardiomyocytes; assay: as above
Protocol: as §1

1565 = donor line of iPSC-derived cardiomyocytes; assay: as above
Protocol: as §1

1531 = donor line of iPSC-derived cardiomyocytes; assay: as above
Protocol: as §1

1516 = donor line of iPSC-derived cardiomyocytes; assay: as above
Protocol: as §1

1118 = donor line of iPSC-derived cardiomyocytes; assay: as above
Protocol: as §1

30145 [8] = assay: as above
Protocol: as §1

1309 = donor line of iPSC-derived cardiomyocytes; assay: as above
Protocol: as §1

NS(=O)(=O)C(F)(F)C(F)(F)C(F)(F)C(F)(F)C(F)(F)C(F)(F)F [Perfluorohexanesulfonamide]
POD vs vehicle 1518 [1]: > 100 µM
POD vs vehicle 1392 [2]: > 100 µM
POD vs vehicle 1434 [3]: 20.6 µM
POD vs vehicle 30145 [4]: > 100 µM
POD vs vehicle 30171: 49.3 µM
POD vs vehicle 20084: > 100 µM
POD vs vehicle 1518 [5]: > 100 µM
POD vs vehicle 1392 [6]: > 100 µM
POD vs vehicle 1535: 71.2 µM
POD vs vehicle 1368: > 100 µM
POD vs vehicle 1434 [7]: 58.4 µM
POD vs vehicle 20032: 96 µM
POD vs vehicle 1083: > 100 µM
POD vs vehicle 11235: 6.45 µM
POD vs vehicle 1565: > 100 µM
POD vs vehicle 1531: 40.8 µM
POD vs vehicle 1516: 77.8 µM
POD vs vehicle 1118: 7.84 µM
POD vs vehicle 30145 [8]: > 100 µM
POD vs vehicle 1309: 90.8 µM

O=C(O)C(F)(F)OC(F)(F)C(F)(F)OC(F)(F)F [Perfluoro-3,6-dioxaheptanoic_acid]
POD vs vehicle 1518 [1]: > 100 µM
POD vs vehicle 1392 [2]: > 100 µM
POD vs vehicle 1434 [3]: > 100 µM
POD vs vehicle 30145 [4]: > 100 µM
POD vs vehicle 30171: > 100 µM
POD vs vehicle 20084: > 100 µM
POD vs vehicle 1518 [5]: > 100 µM
POD vs vehicle 1392 [6]: > 100 µM
POD vs vehicle 1535: > 100 µM
POD vs vehicle 1368: > 100 µM
POD vs vehicle 1434 [7]: > 100 µM
POD vs vehicle 20032: > 100 µM
POD vs vehicle 1083: > 100 µM
POD vs vehicle 11235: > 100 µM
POD vs vehicle 1565: > 100 µM
POD vs vehicle 1531: > 100 µM
POD vs vehicle 1516: > 100 µM
POD vs vehicle 1118: > 100 µM
POD vs vehicle 30145 [8]: > 100 µM
POD vs vehicle 1309: > 100 µM

O=C(O)C(F)(F)C(F)(F)C(F)(F)C(F)(F)C(F)(F)C(F)(F)C(F)(F)C(F)(F)C(F)(F)F [Perfluorodecanoic_acid]
POD vs vehicle 1518 [1]: 67.6 µM
POD vs vehicle 1392 [2]: > 100 µM
POD vs vehicle 1434 [3]: 75.8 µM
POD vs vehicle 30145 [4]: > 100 µM
POD vs vehicle 30171: 36.5 µM
POD vs vehicle 20084: > 100 µM
POD vs vehicle 1518 [5]: > 100 µM
POD vs vehicle 1392 [6]: > 100 µM
POD vs vehicle 1535: > 100 µM
POD vs vehicle 1368: > 100 µM
POD vs vehicle 1434 [7]: 67.4 µM
POD vs vehicle 20032: > 100 µM
POD vs vehicle 1083: 74.6 µM
POD vs vehicle 11235: 67.4 µM
POD vs vehicle 1565: > 100 µM
POD vs vehicle 1531: > 100 µM
POD vs vehicle 1516: 68.8 µM
POD vs vehicle 1118: 9.5 µM
POD vs vehicle 30145 [8]: > 100 µM
POD vs vehicle 1309: > 100 µM

O=S(=O)(O)C(F)(F)C(F)(F)C(F)(F)C(F)(F)F [Perfluorobutanesulfonic_acid]
POD vs vehicle 1518 [1]: > 100 µM
POD vs vehicle 1392 [2]: > 100 µM
POD vs vehicle 1434 [3]: > 100 µM
POD vs vehicle 30145 [4]: > 100 µM
POD vs vehicle 30171: > 100 µM
POD vs vehicle 20084: > 100 µM
POD vs vehicle 1518 [5]: > 100 µM
POD vs vehicle 1392 [6]: > 100 µM
POD vs vehicle 1535: > 100 µM
POD vs vehicle 1368: > 100 µM
POD vs vehicle 1434 [7]: > 100 µM
POD vs vehicle 20032: > 100 µM
POD vs vehicle 1083: > 100 µM
POD vs vehicle 11235: > 100 µM
POD vs vehicle 1565: > 100 µM
POD vs vehicle 1531: > 100 µM
POD vs vehicle 1516: > 100 µM
POD vs vehicle 1118: > 100 µM
POD vs vehicle 30145 [8]: > 100 µM
POD vs vehicle 1309: > 100 µM

OCCC(F)(F)C(F)(F)C(F)(F)C(F)(F)F [4:2 Fluorotelomer alcohol]
POD vs vehicle 1518 [1]: > 100 µM
POD vs vehicle 1392 [2]: > 100 µM
POD vs vehicle 1434 [3]: > 100 µM
POD vs vehicle 30145 [4]: 49.9 µM
POD vs vehicle 30171: > 100 µM
POD vs vehicle 20084: > 100 µM
POD vs vehicle 1518 [5]: > 100 µM
POD vs vehicle 1392 [6]: > 100 µM
POD vs vehicle 1535: > 100 µM
POD vs vehicle 1368: > 100 µM
POD vs vehicle 1434 [7]: > 100 µM
POD vs vehicle 20032: > 100 µM
POD vs vehicle 1083: > 100 µM
POD vs vehicle 11235: > 100 µM
POD vs vehicle 1565: > 100 µM
POD vs vehicle 1531: > 100 µM
POD vs vehicle 1516: > 100 µM
POD vs vehicle 1118: 89.1 µM
POD vs vehicle 30145 [8]: > 100 µM
POD vs vehicle 1309: > 100 µM

O=C(O)C(F)(F)C(F)(F)C(F)(F)C(F)(F)C(F)(F)C(F)(F)C(F)(F)C(F)(F)Cl [9-Chloro-perfluorononanoic_acid]
POD vs vehicle 1518 [1]: > 100 µM
POD vs vehicle 1392 [2]: > 100 µM
POD vs vehicle 1434 [3]: 36.7 µM
POD vs vehicle 30145 [4]: > 100 µM
POD vs vehicle 30171: 44.1 µM
POD vs vehicle 20084: > 100 µM
POD vs vehicle 1518 [5]: > 100 µM
POD vs vehicle 1392 [6]: > 100 µM
POD vs vehicle 1535: > 100 µM
POD vs vehicle 1368: > 100 µM
POD vs vehicle 1434 [7]: 87.4 µM
POD vs vehicle 20032: > 100 µM
POD vs vehicle 1083: > 100 µM
POD vs vehicle 11235: 14.7 µM
POD vs vehicle 1565: > 100 µM
POD vs vehicle 1531: > 100 µM
POD vs vehicle 1516: 90.9 µM
POD vs vehicle 1118: 84.3 µM
POD vs vehicle 30145 [8]: > 100 µM
POD vs vehicle 1309: > 100 µM

O=C(O)C(F)(F)C(F)(F)C(F)F [2,2,3,3,4,4-Hexafluorobutanoic_acid]
POD vs vehicle 1518 [1]: > 100 µM
POD vs vehicle 1392 [2]: > 100 µM
POD vs vehicle 1434 [3]: > 100 µM
POD vs vehicle 30145 [4]: > 100 µM
POD vs vehicle 30171: > 100 µM
POD vs vehicle 20084: > 100 µM
POD vs vehicle 1518 [5]: > 100 µM
POD vs vehicle 1392 [6]: > 100 µM
POD vs vehicle 1535: > 100 µM
POD vs vehicle 1368: > 100 µM
POD vs vehicle 1434 [7]: > 100 µM
POD vs vehicle 20032: > 100 µM
POD vs vehicle 1083: > 100 µM
POD vs vehicle 11235: > 100 µM
POD vs vehicle 1565: > 100 µM
POD vs vehicle 1531: > 100 µM
POD vs vehicle 1516: > 100 µM
POD vs vehicle 1118: > 100 µM
POD vs vehicle 30145 [8]: > 100 µM
POD vs vehicle 1309: > 100 µM

O=C(O)C(F)(F)C(F)(F)C(F)(F)C(F)(F)C(F)(F)C(F)(F)C(F)(F)C(F)(F)F [Perfluorononanoic_acid]
POD vs vehicle 1518 [1]: > 100 µM
POD vs vehicle 1392 [2]: > 100 µM
POD vs vehicle 1434 [3]: > 100 µM
POD vs vehicle 30145 [4]: > 100 µM
POD vs vehicle 30171: 82.8 µM
POD vs vehicle 20084: > 100 µM
POD vs vehicle 1518 [5]: > 100 µM
POD vs vehicle 1392 [6]: > 100 µM
POD vs vehicle 1535: > 100 µM
POD vs vehicle 1368: > 100 µM
POD vs vehicle 1434 [7]: > 100 µM
POD vs vehicle 20032: > 100 µM
POD vs vehicle 1083: > 100 µM
POD vs vehicle 11235: 31.5 µM
POD vs vehicle 1565: > 100 µM
POD vs vehicle 1531: > 100 µM
POD vs vehicle 1516: > 100 µM
POD vs vehicle 1118: 99.4 µM
POD vs vehicle 30145 [8]: > 100 µM
POD vs vehicle 1309: > 100 µM

O=S(=O)(O)C(F)(F)C(F)(F)C(F)(F)C(F)(F)C(F)(F)C(F)(F)F [Perfluorohexanesulfonic_acid]
POD vs vehicle 1518 [1]: > 100 µM
POD vs vehicle 1392 [2]: > 100 µM
POD vs vehicle 1434 [3]: > 100 µM
POD vs vehicle 30145 [4]: > 100 µM
POD vs vehicle 30171: > 100 µM
POD vs vehicle 20084: > 100 µM
POD vs vehicle 1518 [5]: > 100 µM
POD vs vehicle 1392 [6]: > 100 µM
POD vs vehicle 1535: > 100 µM
POD vs vehicle 1368: > 100 µM
POD vs vehicle 1434 [7]: > 100 µM
POD vs vehicle 20032: > 100 µM
POD vs vehicle 1083: > 100 µM
POD vs vehicle 11235: > 100 µM
POD vs vehicle 1565: > 100 µM
POD vs vehicle 1531: > 100 µM
POD vs vehicle 1516: > 100 µM
POD vs vehicle 1118: > 100 µM
POD vs vehicle 30145 [8]: > 100 µM
POD vs vehicle 1309: > 100 µM

Reference: the supplement of paper PMC11368000
